# From patent US20150044702A1, “MEANS AND METHODS FOR ASSESSING DISORDERS RELATED TO IMPAIRED IRON […] ENERGY METABOLISM” (BASF SE, priority 2012, published 2015)
# Marks after values point to notes of the source that are not given here.
# Assay: 28-day rat study, plasma metabolite profiling: markers for Duodenum iron deficiency;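 also: rats given the compounds once a day across 28 days, plasma from fasted animals profiled by GC-MS and LC-MS, separate control groups of five rats per sex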
# Settings: for Cholic acid, treatment ratio versus control / Choline plasmalogen (C18,C20:4), treatment ratio versus control / Citrate, treatment ratio versus control / Creatinine, treatment ratio versus control / DAG (C18:1,C18:2), treatment ratio versus control / Hippuric acid, treatment ratio versus control / Indole-3-propionic acid, treatment ratio versus control / Methionine, treatment ratio versus control / Proline, treatment ratio versus control / Serine, treatment ratio versus control / TAG (C16:0,C18:1,C18:3), treatment ratio versus control / TAG (C18:1,C18:2), treatment ratio versus control / TAG (C18:2,C18:2), treatment ratio versus control / TAG (C18:2,C18:3), treatment ratio versus control / TAG (DAG-Fragment), treatment ratio versus control / TAG No 02, treatment ratio versus control / TAG No 07, treatment ratio versus control / Threonine, treatment ratio versus control / alpha-Tocopherol, treatment ratio versus control / Alanine, treatment ratio versus control / Campesterol, treatment ratio versus control / Glutamate, treatment ratio versus control / Glutamine, treatment ratio versus control / Lysophosphatidylcholine (C20:4), treatment ratio versus control / Malate, treatment ratio versus control / Ornithine, treatment ratio versus control / Phosphatidylcholine (C18:0, C22:6), treatment ratio versus control / Threonic acid, treatment ratio versus control: plasma
# Description: A group of each 5 male and female rats was dosed once daily with the indicated compounds (see Table 4, below for compounds, applied doses and administration details) over 28 days.
# Each dose group in the studies consisted of five rats per sex. Additional groups of each 5 male and female animals served as controls. Before starting the treatment period, animals, which were 62-64 days old when supplied, were acclimatized to the housing and environmental conditions for 7 days. All animals of the animal population were kept under the same constant temperature (20-24±3° C.) and the same constant humidity (30-70%). The animals of the animal population were fed ad libitum. The food to be used was essentially free of chemical or microbial contaminants. Drinking water was also offered ad libitum. Accordingly, the water was free of chemical and microbial contaminants as laid down in the European Drinking Water Directive 98/83/EG. The illumination period was 12 hours light followed by 12 hours darkness (12 hours light, from 6:00 to 18:00, and 12 hours darkness, from 18:00 to 6:00). The studies were performed in an AAALAC-approved laboratory in accordance with the German Animal Welfare Act and the European Council Directive 86/609/EE. The test system was arranged according to the OECD 407 guideline for the testing of chemicals for repeated dose 28-day oral toxicity study in rodents.
# In the morning of day 7, 14, and 28, blood was taken from the retroorbital venous plexus from fasted anaesthetized animals. From each animal, 1 ml of blood was collected with EDTA as anticoagulant. The samples were centrifuged for generation of plasma. All plasma samples were covered with a N2 atmosphere and then stored at −80° C. until analysis.
# For mass spectrometry-based metabolite profiling analyses plasma samples were extracted and a polar and a non-polar (lipid) fraction was obtained. For GC-MS analysis, the non-polar fraction was treated with methanol under acidic conditions to yield the fatty acid methyl esters. Both fractions were further derivatised with O-methyl-hydroxyamine hydrochloride and pyridine to convert Oxo-groups to O-methyloximes and subsequently with a silylating agent before analysis. In LC-MS analysis, both fractions were reconstituted in appropriate solvent mixtures. HPLC was performed by gradient elution on reversed phase separation columns.
# Steroids and their metabolites were measured by online SPE-LC-MS (Solid phase extraction-LC-MS).
# Following comprehensive analytical validation steps, the data for each analyte were normalized against data from pool samples. These samples were run in parallel through the whole process to account for process variability. The significance of treatment group values specific for sex, treatment duration and metabolite was determined by comparing means of the treated groups to the means of the respective untreated control groups using WELCH-test and quantified with treatment ratios versus control and p-values.
smiles,measurement,setting,value
"CNC(=O)/C(=N/OC)c1ccccc1COc1cc(C)ccc1C [Dimoxystrobin, (E)-2-(methoxyimino)-N-methyl-2-[alpha-(2,5-xylyloxy)-o-tolyl]acetamide]","Cholic acid, treatment ratio versus control","female rats, day 7",70.58*
same,"Choline plasmalogen (C18,C20:4), treatment ratio versus control","female rats, day 7",1.11
same,"Citrate, treatment ratio versus control","female rats, day 7",1.22*
same,"Creatinine, treatment ratio versus control","female rats, day 7",0.71
same,"DAG (C18:1,C18:2), treatment ratio versus control","female rats, day 7",1.9*
same,"Hippuric acid, treatment ratio versus control","female rats, day 7",0.85
same,"Indole-3-propionic acid, treatment ratio versus control","female rats, day 7",1.53
same,"Methionine, treatment ratio versus control","female rats, day 7",1.05
same,"Proline, treatment ratio versus control","female rats, day 7",1.28*
same,"Serine, treatment ratio versus control","female rats, day 7",1.5*
same,"TAG (C16:0,C18:1,C18:3), treatment ratio versus control","female rats, day 7",4.14*
same,"TAG (C18:1,C18:2), treatment ratio versus control","female rats, day 7",4.42*
same,"TAG (C18:2,C18:2), treatment ratio versus control","female rats, day 7",5.1*
same,"TAG (C18:2,C18:3), treatment ratio versus control","female rats, day 7",4.2*
same,"TAG (DAG-Fragment), treatment ratio versus control","female rats, day 7",4.39*
same,"TAG No 02, treatment ratio versus control","female rats, day 7",0.75*
same,"TAG No 07, treatment ratio versus control","female rats, day 7",2.96*
same,"Threonine, treatment ratio versus control","female rats, day 7",1.62*
same,"alpha-Tocopherol, treatment ratio versus control","female rats, day 7",1.74*
same,"Cholic acid, treatment ratio versus control","female rats, day 14",39.73*
same,"Choline plasmalogen (C18,C20:4), treatment ratio versus control","female rats, day 14",1.13*
same,"Citrate, treatment ratio versus control","female rats, day 14",1.17*
same,"Creatinine, treatment ratio versus control","female rats, day 14",1.07
same,"DAG (C18:1,C18:2), treatment ratio versus control","female rats, day 14",1.96*
same,"Hippuric acid, treatment ratio versus control","female rats, day 14",0.51*
same,"Indole-3-propionic acid, treatment ratio versus control","female rats, day 14",0.87
same,"Methionine, treatment ratio versus control","female rats, day 14",1.18*
same,"Proline, treatment ratio versus control","female rats, day 14",1.35*
same,"Serine, treatment ratio versus control","female rats, day 14",1.66*
same,"TAG (C16:0,C18:1,C18:3), treatment ratio versus control","female rats, day 14",3.15
same,"TAG (C18:1,C18:2), treatment ratio versus control","female rats, day 14",3.71*
same,"TAG (C18:2,C18:2), treatment ratio versus control","female rats, day 14",3.83*
same,"TAG (C18:2,C18:3), treatment ratio versus control","female rats, day 14",2.76*
same,"TAG (DAG-Fragment), treatment ratio versus control","female rats, day 14",4.43*
same,"TAG No 02, treatment ratio versus control","female rats, day 14",0.73*
same,"TAG No 07, treatment ratio versus control","female rats, day 14",1.7
same,"Threonine, treatment ratio versus control","female rats, day 14",1.34*
same,"alpha-Tocopherol, treatment ratio versus control","female rats, day 14",1.43*
same,"Cholic acid, treatment ratio versus control","female rats, day 28",6.46*
same,"Choline plasmalogen (C18,C20:4), treatment ratio versus control","female rats, day 28",1.11*
same,"Citrate, treatment ratio versus control","female rats, day 28",1.21*
same,"Creatinine, treatment ratio versus control","female rats, day 28",0.74
same,"DAG (C18:1,C18:2), treatment ratio versus control","female rats, day 28",1.58*
same,"Hippuric acid, treatment ratio versus control","female rats, day 28",0.29*
same,"Indole-3-propionic acid, treatment ratio versus control","female rats, day 28",0.58*
same,"Methionine, treatment ratio versus control","female rats, day 28",1.15*
same,"Proline, treatment ratio versus control","female rats, day 28",1.25*
same,"Serine, treatment ratio versus control","female rats, day 28",1.41*
same,"TAG (C16:0,C18:1,C18:3), treatment ratio versus control","female rats, day 28",2
same,"TAG (C18:1,C18:2), treatment ratio versus control","female rats, day 28",1.95
same,"TAG (C18:2,C18:2), treatment ratio versus control","female rats, day 28",2.48*
same,"TAG (C18:2,C18:3), treatment ratio versus control","female rats, day 28",2.26
same,"TAG (DAG-Fragment), treatment ratio versus control","female rats, day 28",2.23*
same,"TAG No 02, treatment ratio versus control","female rats, day 28",0.77*
same,"TAG No 07, treatment ratio versus control","female rats, day 28",1.45
same,"Threonine, treatment ratio versus control","female rats, day 28",1.23*
same,"alpha-Tocopherol, treatment ratio versus control","female rats, day 28",1.32
same,"Alanine, treatment ratio versus control","male rats, day 7",1.41*
same,"Campesterol, treatment ratio versus control","male rats, day 7",1.13
same,"Citrate, treatment ratio versus control","male rats, day 7",1.19*
same,"Creatinine, treatment ratio versus control","male rats, day 7",0.95
same,"Glutamate, treatment ratio versus control","male rats, day 7",0.93
same,"Glutamine, treatment ratio versus control","male rats, day 7",0.79*
same,"Hippuric acid, treatment ratio versus control","male rats, day 7",0.91
same,"Lysophosphatidylcholine (C20:4), treatment ratio versus control","male rats, day 7",0.96
same,"Malate, treatment ratio versus control","male rats, day 7",1.25*
same,"Methionine, treatment ratio versus control","male rats, day 7",1.08*
same,"Ornithine, treatment ratio versus control","male rats, day 7",1.19*
same,"Phosphatidylcholine (C18:0, C22:6), treatment ratio versus control","male rats, day 7",1.12*
same,"Serine, treatment ratio versus control","male rats, day 7",1.28*
same,"Threonic acid, treatment ratio versus control","male rats, day 7",1.33*
same,"Threonine, treatment ratio versus control","male rats, day 7",1.14
same,"Alanine, treatment ratio versus control","male rats, day 14",1.59*
same,"Campesterol, treatment ratio versus control","male rats, day 14",1.16
same,"Citrate, treatment ratio versus control","male rats, day 14",1.32*
same,"Creatinine, treatment ratio versus control","male rats, day 14",0.63*
same,"Glutamate, treatment ratio versus control","male rats, day 14",0.74*
same,"Glutamine, treatment ratio versus control","male rats, day 14",0.77*
same,"Hippuric acid, treatment ratio versus control","male rats, day 14",0.48*
same,"Lysophosphatidylcholine (C20:4), treatment ratio versus control","male rats, day 14",0.93*
same,"Malate, treatment ratio versus control","male rats, day 14",1.16
same,"Methionine, treatment ratio versus control","male rats, day 14",1.16*
same,"Ornithine, treatment ratio versus control","male rats, day 14",1.52*
same,"Phosphatidylcholine (C18:0, C22:6), treatment ratio versus control","male rats, day 14",1.47*
same,"Serine, treatment ratio versus control","male rats, day 14",1.32*
same,"Threonic acid, treatment ratio versus control","male rats, day 14",1.29*
same,"Threonine, treatment ratio versus control","male rats, day 14",1.29*
same,"Alanine, treatment ratio versus control","male rats, day 28",1.28*
same,"Campesterol, treatment ratio versus control","male rats, day 28",0.59*
same,"Citrate, treatment ratio versus control","male rats, day 28",1.57*
same,"Creatinine, treatment ratio versus control","male rats, day 28",0.26*
same,"Glutamate, treatment ratio versus control","male rats, day 28",0.78*
same,"Glutamine, treatment ratio versus control","male rats, day 28",0.83*
same,"Hippuric acid, treatment ratio versus control","male rats, day 28",1.43
same,"Lysophosphatidylcholine (C20:4), treatment ratio versus control","male rats, day 28",1.03
same,"Malate, treatment ratio versus control","male rats, day 28",0.86
same,"Methionine, treatment ratio versus control","male rats, day 28",1.01
same,"Ornithine, treatment ratio versus control","male rats, day 28",1.47*
same,"Phosphatidylcholine (C18:0, C22:6), treatment ratio versus control","male rats, day 28",1.35*
same,"Serine, treatment ratio versus control","male rats, day 28",1.29*
same,"Threonic acid, treatment ratio versus control","male rats, day 28",1.46*
same,"Threonine, treatment ratio versus control","male rats, day 28",1.21*
same,capability of inducing an iron adsorption disorder,statement in words,capable of inducing an iron adsorption disorder
